The record followed here is US20250018019A1, “TREATMENT OF INTERFERON DRIVEN INFLAMMATION” (The Provost, Fellows, Foundation Scholars and the other …, priority 2023, published 2025).

What all share (format): cell-based, mouse
Assay [1] has as its system BMDMs. The assay can be described thus: Flow cytometry, CellROX and TMRM staining. To be noted: BMDMs pre-treated, LPS 4 h; oligomycin 10 μM, CCCP 50 μM, valinomycin 10 nM, MMF 50 or 100 μM. As for the experimental part: (§1) All compounds used DMSO as a vehicle except for 4-hydroxy tamoxifen (EtOH), NAC (PBS), and AOAA for tracing experiments (Media). LPS was used at a concentration of 100 ng/ml for indicated timepoints (2, 3, 4, 6, 8, 24, 48 h). FHIN1 (10 or 20 μM), MMF (50 or 100 μM), DMF (25 μM), AOAA (5 mM), oligomycin (10 μM), CCCP (50 μM) NAC (1 mM), and IMT1 (10 μM) pre-treatments were performed for 3 h prior the addition of LPS. Cells were treated with valinomycin (10 nM) 15 mins before LPS stimulation. Anti-CD210 or IgG control (10 μg/ml) antibodies were added to cells 1 h prior to LPS stimulation. Recombinant mouse IL-10 protein (100 ng/ml) was added to cells at the same time as LPS. Cells were treated with IFN-B1 (220 ng/ml) for 3 h. Cells were treated with C-178 (1 μM) 1 h prior to LPS stimulation or transfection with 2′3′-cGAMP (1.5 μg/ml) for 4 hrs to achieve cGAS-STING activation. Cells were treated with ODN 2088 (1 μM) for 1 hr prior to LPS stimulation or transfection with CPG ODN 1826 (1.5 μg/ml) to achieve TLR9 activation. 3 different timepoints of 4-hydroxy tamoxifen (TAM) (600 nM or 2 μM) or EtOH treatment were performed-these are specified in the individual figure legends. For ‘48 h’ treatments EtOH/TAM was added on day 5 of 6 during the BMDM differentiation protocol. On day 6 they were plated with EtOH/TAM (left overnight) and treated the following day. For ‘72 h’ treatments EtOH/TAM was added on day […] of 6 during the BMDM differentiation protocol. On day 6 they were plated with EtOH/TAM (left overnight) and treated the following day. For ‘96 h’ treatments EtOH/TAM was added on day […] of 6 during the BMDM differentiation protocol. On day 6 they were plated with EtOH/TAM and treated 2 days later.
Cells were plated in 12-well plates and treated as desired. CellROX Green (5 μM, Thermo Fisher) or TMRM (20 nM, Thermo Fisher) was added to cells 30 mins prior to end of cell treatments. Cells were washed once in PBS and scraped into 200 μl FACS buffer (2 mM EDTA, 0.5% FCS in PBS). Acquisition of samples was performed on a BD Accuri C6 flow cytometer. The gating strategy used for all flow cytometry experiments consisted of debris exclusion by FSC-A vs SSC-A analysis and subsequent doublet exclusion by FSC-A vs FSC-H analysis. A sample gating strategy is provided in Supplementary FIG. 2. 10,000 cells was acquired per condition. Mean fluorescence intensity (MFI) was calculated for all cells in each condition using FlowJo v10.
(A flow cytometer gives signals particle by particle.)

In assay [2] the test system is BMDMs. As to the kind of experiment: ELISA of cytokine release from BMDMs. The conditions noted are these: LPS 4 h; for LPS-induced IFN-β release: BMDMs pre-treated. As for the experimental part:
as §1
(§2) Pre-designed silencer select siRNAs for Cgas (s103166), Tmem173 (s91058), Tlr3 (s100579), Tlr9 (s96268), As/(s99640), Tlr7 (s100720), Ddx58 (s106376), Ifih1 (s89787), Nrf2 (s70522), Atf4 (s62689) and negative control (4390843) were ordered from Thermo Fisher. siRNA sequences are given in Table S2. Cells were transfected with 50 nM siRNA using 5 μl lipofectamine RNAiMAX according to manufacturer's instructions (Thermo Fisher). Cells were transfected in medium without serum and antibiotics which was replaced with complete medium 8 hours later. Cells were subsequently left for at least a further 12 hours prior to treatment.
BMDMs were plated in the presence or absence of ultrapure ethidium bromide (100 ng/ml) and incubated for a further 6 days prior to treatment. Depletion of mtDNA was determined by genomic DNA isolation followed by qPCR using primers specific for areas of mitochondrial DNA (D-loop) and areas of mtDNA that are not inserted into nuclear DNA (Non-NUMT).
DuoSet ELISA kits for IL-1β, TNFα, IL-6, IL-10, and GDF15 were purchased from R&D Systems and were carried out according to the manufacturer's instructions with appropriately diluted cell supernatants added to each plate in duplicate or triplicate. IFN-β was determined using DuoSet ELISA kit from R&D Systems or Abcam (ab252363). Quantikine ELISA kit for IFN-β (R&D Systems) was used for determination of IFN-β concentration in serum samples and from human cells, and these were also carried out according to the manufacturer's instructions. Absorbance at 450 nm was quantified using a FLUOstar Optima plate reader. Corrected absorbance values were calculated by subtracting the background absorbance, and cytokine concentrations were subsequently obtained by extrapolation from a standard curve plotted on GraphPad Prism 9.2.0.

Assay [3] concerns BMDMs. The assay can be described thus: Digitonin fractionation, qPCR of mtDNA and mtRNA. As for the experimental part:
as §1
BMDMs were plated at 0.5×10^6 cells/well and treated as desired. After treatment, cells were washed once with room temperature PBS, before being scraped on ice into ice cold PBS and pelleted at 500×g for 5 mins at 4° C. Supernatant was removed and discarded, and the pellet was resuspended in 400 μl extraction buffer (150 mM NaCl, 50 mM HEPES pH 7.4, 25 μg/ml digitonin). Samples were then placed in a rotating mixer at 4° C. for 10 mins before centrifugation at 2000×g at 4° C. for 5 mins. The resulting supernatant constituted the cytosolic fraction, from which RNA and DNA were isolated using an AllPrep DNA/RNA Mini Kit (Qiagen). Alternatively, the cytosolic fraction was concentrated using Strataclean Resin (Agilent) and analysed by western blot. The pellet constituted a fraction containing membrane-bound organelles which was lysed in RNA lysis buffer for RNA isolation or lysed in western blot lysis buffer for analysis by western blot. To determine the presence of mtRNA and mtDNA in the cytosol, qPCR was performed using primers specific for mitochondrial D-loop on cDNA which had been reverse-transcribed from RNA isolated from the cytosolic fraction (mtRNA) and on DNA isolated from the cytosolic fraction (mtDNA). In both cases, values were normalised using a housekeeping control gene (β-actin) amplified in cDNA which had been reverse-transcribed from RNA isolated from the membrane-bound fraction.
In general terms: In qPCR the cycle at which signal appears reflects the starting amount.

Assay [4] has as its system BMDMs. The assay can be described thus: RT-qPCR gene expression in BMDMs. As for the experimental part:
as §1
RNA extraction from cells was carried out using a Purelink™ RNA kit (Invitrogen) according to the manufacturer's instructions. BMDMs were treated as required, and following treatment were instantly lysed in 350 μl RNA lysis buffer. Isolated RNA was quantified using a NanoDrop 2000 spectrophotometer, and RNA concentration was normalised to the lowest concentration across all samples with RNAse-free water. If necessary, samples were DNAse-treated after quantification using DNAse I (Thermo Fisher) according to the manufacturer's instructions. Isolated RNA samples were normalised and converted into cDNA using the High-Capacity cDNA Reverse Transcription Kit (Thermo Fisher) according to manufacturer's instructions. 10 μl of RNA (at a maximum concentration of 100 ng/μl) was added to 10 μl of reverse transcription master mix to complete the reaction mixture. Real-time quantitative PCR was performed on the cDNA generated in the previous step, using primers designed in-house and ordered from Eurofins Genomics, as detailed in Table S2. The reaction was performed in a 96-well qPCR plate by a 7500 Fast Real-Time PCR machine (Thermo Fisher). Relative expression (2^−ΔΔCT) was calculated from the CT values for each sample and gene of interest.
as §2

In assay [5] the test system is BMDMs. The assay can be described thus: Immunofluorescence, Mitotracker Red and dsRNA. The conditions noted are these: BMDMs pre-treated, relative to DMSO control, LPS 4 h. As for the experimental part: as §1
Cells were plated on 20 mm cover slips in 12-well plates. Cells were treated as required and Mitotracker Red CMXRos (100 nM, Thermo Fisher), was added to medium 30 mins prior to end of cell treatments. After 30 min incubation, cells were washed three times with warm PBS. Cells were subsequently fixed for 10 mins with 4% paraformaldehyde/PBS at 37° C. Cells were washed three times with PBS and permeabilized for 1 hour in block solution (1% BSA, 22.52 mg/ml glycine, 0.1% tween 20 in PBS). Anti-dsRNA antibody (Merck) was diluted 1/60 in block solution and incubated with cells overnight at room temperature. Cells were washed three times with PBS for 5 mins/wash. […] Images were analysed using the LAS X Life Science Microscope Software Platform (Leica). The same microscope instrument settings were used for all samples and all images were analysed using the same settings. […] Quantification of dsRNA or Mitotracker Red CMXRos signal intensity was performed using the measure function in ImageJ 1.53t (NIH).

As for `N#CC(C#N)=NNc1cccc(Cl)c1` [CCCP], the “mitochondrial membrane potential (MMP), TMRM staining” value (shortened to “mitochondrial membrane potential”) in the assay with BMDMs [1] is “significantly dissipated”. Also, in the assay with BMDMs [2], the “LPS-induced IFN-β release” value is “boosted”.
With `Cc1ccccc1-c1cc(=O)oc2cc(OC(C)C(=O)N(C)C)ccc12` (centres unmarked) [IMT1], the “effect on the increase in mtRNA with FHIN1 (cytosolic and whole cell fraction)” value in the assay on BMDMs [3] (BMDMs co-treated with FHIN1 and IMT1 10 μM, LPS 4 h) is “inhibited in both”. In addition, the “effect on the FHIN1-mediated boost in IFN-β release” value in the assay with BMDMs [2] (BMDMs co-treated with FHIN1 and IMT1 10 μM) is “abrogated”.
Take `CC(=O)N[C@@H](CS)C(=O)O` [NAC, N-acetyl cysteine]: in the assay on BMDMs [4] (BMDMs, NAC 1 mM together with FHIN1 or DMF, LPS 4 h), the “suppression of Il10 by FHIN1 and DMF” value was “abrogated”.
Take `CC[C@H]1/C=C/C=C/C[C@@H](C)[C@H](O)[C@@](C)(O)C(=O)[C@@H](C)[C@H](O)[C@@H](C)C(=O)[C@@H](C)[C@H](O)[C@@H](C)/C=C/C(=O)O[C@@H]2[C@H](C)[C@H](CC1)O[C@]1(CC[C@H](C)[C@H](C[C@@H](C)O)O1)[C@H]2C` [oligomycin A, Oligomycin A]: in the assay with BMDMs [3] (digitonin-fractionated BMDMs), the “mtDNA in cytosolic extracts (D-loop)” value was “increase” and the “mtRNA in cytosolic extracts” value is listed as “increased”. The “mitochondrial membrane potential” value with BMDMs [1] is on record as “boosted”. Also, the “LPS-induced IFN-β release” value in the assay with BMDMs [2] is reported as “boosted”. Also, in the assay on BMDMs [5], the “dsRNA accumulation (immunofluorescence)” value is recorded as “accumulation of dsRNA to a similar extent to that observed in cells treated with FHIN1”.
Consider `CC(C)[C@@H]1NC(=O)[C@H](C)OC(=O)[C@@H](C(C)C)NC(=O)[C@@H](C(C)C)OC(=O)[C@H](C(C)C)NC(=O)[C@H](C)OC(=O)[C@@H](C(C)C)NC(=O)[C@@H](C(C)C)OC(=O)[C@H](C(C)C)NC(=O)[C@H](C)OC(=O)[C@@H](C(C)C)NC(=O)[C@@H](C(C)C)OC1=O` [valinomycin A, valinomycin], for which the “mitochondrial membrane potential” value in the assay with BMDMs [1] was “non-significantly reduced”. Also, the “LPS-induced IFN-β release” value in the assay with BMDMs [2] is listed as “boosted”. Moreover, the “dsRNA accumulation (immunofluorescence)” value with BMDMs [5] is “similarly drove dsRNA accumulation”.

B1: IFN-β: recombinant mouse IFN-β1 used to stimulate BMDMs (protein, UniProt P01575 22-182, looked up)
Interferon beta: INYKQLQLQERTNIRKCQELLEQLNGKINLTYRADFKIPMEMTEKMQKSYTAFAIQEMLQNVFLVFRNNFSSTGWNETIVVRLLDELHQQTVFLKTVLEEKQEERLTWEMSSTALHLKSYYWRVQRYLKLMKYNSYAWMVVRAEIFRNFLIIRRLTRNFQN
Regarding B1, the Fh1 expression entry in the assay with BMDMs [4] (IFN-β-stimulated BMDMs (220 ng/ml, 3 h)) is recorded as “inhibited”.
